In publication PMC11793850, “Insights into Molecular Interactions and Biological Effect of Natural Stilbenoids at the TRPA1 Ion Channel” (Chemmedchem, 2024):

Experiments:
[1] = target: T1, hTRPA1 (Homo sapiens, UniProt O75762); assay: FLIPR calcium assay (agonism) in HEK293 cells with inducible hTRPA1; non-expressing HEK293 control; type: cell-based
T1 construct: gene TRPA1

[2] = target: T2, rTRPA1 (Rattus norvegicus, UniProt Q6RI86); assay: FLIPR calcium assay in HEK293 cells with inducible rTRPA1 ([…] of maximal AITC response at […]; desensitization to AITC); type: cell-based
T2 construct: gene Trpa1
T2 sequence (Q6RI86 whole entry): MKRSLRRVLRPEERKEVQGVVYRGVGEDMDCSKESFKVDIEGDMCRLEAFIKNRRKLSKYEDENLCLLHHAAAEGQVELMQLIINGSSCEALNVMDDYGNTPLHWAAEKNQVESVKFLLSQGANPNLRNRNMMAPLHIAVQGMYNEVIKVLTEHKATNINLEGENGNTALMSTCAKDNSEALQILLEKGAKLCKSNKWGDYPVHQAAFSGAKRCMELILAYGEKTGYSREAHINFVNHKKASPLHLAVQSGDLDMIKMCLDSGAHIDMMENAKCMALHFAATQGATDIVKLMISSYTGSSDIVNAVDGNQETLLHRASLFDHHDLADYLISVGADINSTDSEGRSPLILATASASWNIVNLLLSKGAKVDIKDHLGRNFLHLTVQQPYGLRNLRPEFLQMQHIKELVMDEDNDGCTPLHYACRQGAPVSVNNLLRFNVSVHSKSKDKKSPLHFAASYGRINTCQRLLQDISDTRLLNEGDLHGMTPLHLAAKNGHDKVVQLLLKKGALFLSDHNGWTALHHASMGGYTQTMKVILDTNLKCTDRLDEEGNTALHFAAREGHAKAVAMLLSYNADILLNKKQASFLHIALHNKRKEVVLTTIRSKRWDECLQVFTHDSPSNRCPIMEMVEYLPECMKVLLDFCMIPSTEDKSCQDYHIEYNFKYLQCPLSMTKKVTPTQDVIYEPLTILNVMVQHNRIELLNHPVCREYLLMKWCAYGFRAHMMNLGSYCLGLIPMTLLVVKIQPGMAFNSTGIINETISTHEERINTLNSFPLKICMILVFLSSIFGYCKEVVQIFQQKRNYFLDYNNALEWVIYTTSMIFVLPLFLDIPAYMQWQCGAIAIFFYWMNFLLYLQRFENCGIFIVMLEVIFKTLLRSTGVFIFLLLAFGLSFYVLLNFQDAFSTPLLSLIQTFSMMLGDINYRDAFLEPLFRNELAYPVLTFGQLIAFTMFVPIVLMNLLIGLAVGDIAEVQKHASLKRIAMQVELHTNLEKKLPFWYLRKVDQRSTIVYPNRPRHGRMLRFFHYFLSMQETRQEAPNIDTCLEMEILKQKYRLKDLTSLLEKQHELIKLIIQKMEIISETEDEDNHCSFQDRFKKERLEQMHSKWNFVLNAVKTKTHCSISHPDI

T1 sequence (O75762 whole entry): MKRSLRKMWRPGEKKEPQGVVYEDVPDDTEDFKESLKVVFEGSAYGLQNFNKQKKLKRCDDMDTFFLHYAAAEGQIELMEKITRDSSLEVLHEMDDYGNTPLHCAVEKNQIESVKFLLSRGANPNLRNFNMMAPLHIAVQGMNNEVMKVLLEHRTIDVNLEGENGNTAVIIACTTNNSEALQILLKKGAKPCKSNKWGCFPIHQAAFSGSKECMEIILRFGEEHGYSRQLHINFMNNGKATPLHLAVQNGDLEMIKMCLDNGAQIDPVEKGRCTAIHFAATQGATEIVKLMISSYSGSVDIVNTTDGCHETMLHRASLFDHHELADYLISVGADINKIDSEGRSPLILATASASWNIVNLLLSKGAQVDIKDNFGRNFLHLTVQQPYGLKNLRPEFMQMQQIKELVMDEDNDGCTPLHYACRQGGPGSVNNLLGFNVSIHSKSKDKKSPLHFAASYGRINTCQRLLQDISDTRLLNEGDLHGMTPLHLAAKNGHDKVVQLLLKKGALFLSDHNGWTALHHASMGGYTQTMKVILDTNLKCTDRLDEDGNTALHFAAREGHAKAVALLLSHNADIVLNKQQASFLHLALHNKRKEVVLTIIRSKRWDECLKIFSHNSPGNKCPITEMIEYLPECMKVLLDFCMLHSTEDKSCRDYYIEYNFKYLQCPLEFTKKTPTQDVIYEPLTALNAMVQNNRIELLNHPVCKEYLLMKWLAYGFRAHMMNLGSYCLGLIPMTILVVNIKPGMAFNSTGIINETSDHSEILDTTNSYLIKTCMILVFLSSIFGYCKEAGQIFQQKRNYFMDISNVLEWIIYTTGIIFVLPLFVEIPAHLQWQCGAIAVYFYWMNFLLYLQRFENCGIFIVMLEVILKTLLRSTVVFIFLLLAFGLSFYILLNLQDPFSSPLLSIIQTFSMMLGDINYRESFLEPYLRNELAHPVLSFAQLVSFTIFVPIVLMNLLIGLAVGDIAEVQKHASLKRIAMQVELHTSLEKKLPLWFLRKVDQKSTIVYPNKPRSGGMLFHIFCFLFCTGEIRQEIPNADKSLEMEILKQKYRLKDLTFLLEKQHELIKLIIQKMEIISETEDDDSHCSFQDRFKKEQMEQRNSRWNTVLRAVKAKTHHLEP

Row | EC50 [1] [µM] | SMILES | Emax at 100 µM [2] [%]
1 | 12 ± 1.1 | Oc1cc(O)cc(/C=C/c2ccccc2)c1 [Pinosylvin] | 
2 | 11.2 ± 0.8 | COc1cc(O)cc(/C=C/c2ccccc2)c1 [pinosylvin monomethyl ether] | 

Row | SMILES | EC50 [1] [µM] | Emax at 100 µM [2] [%]
3 | Oc1ccc(/C=C/c2cc(O)cc(O)c2)cc1 [Resveratrol] | 3.2 ± 0.2 | 35
